# Laboratory results reported in patent US9738656B2, “Pyranodipyridine compound” (Eisai R&D Management Co., Ltd., priority 2015, dated 2017).
# Like-named read-outs stand apart in the source and are kept apart here.
# Assays:
# male ddY mice [1] = assay: Rotarod performance test-2; assay type: in vivo; details: for Time of Fall: mice, oral at the ED50 dose of the 6 Hz model, 25 minutes after administration; for Ratio Relative to the Control Compound: time of fall relative to control compound
# Description: Rotarod Performance Test-2
# (§1) A rotarod (MK-660C from Muromachi Kikai Co., Ltd.) was used for the measurement. The rod (bar) was controlled to be gradually accelerated from its stationary state to a speed of 40 rotations/minute after 180 seconds. As the animals, 5 or 6-week-old male ddY mice (Japan SLC, Inc.) were used. On the day on which the test was performed, the mice were trained under the above-described measurement conditions, and mice that were able to ride on the rod for 1 minute or longer with good reproducibility were selected and subjected to the test.
# As the control, only the medium was orally administered. After a lapse of 25 minutes from the oral administration of each compound, the mice were subjected to the rotarod performance test. Five or six mice were used for each compound group. For each compound, the time until the mice fell from the rotarod was measured.
# male ddY mice [2] = assay: Rotarod performance test-1; assay type: in vivo; details: oral, 25 minutes after administration, dose at which time of fall is reduced to 50% of medium control
# Description: (§2) With regard to the AMPA receptor inhibitory action of the compounds, AMPA-induced intraneuronal calcium entry-suppressing action was examined using a primary culture system of embryonic rat cerebral cortex neurons. […] AMPA inhibitor-induced central nervous system depressant action such as loss of coordination was evaluated using a rotarod performance test.
# Rotarod Performance Test-1
# as §1
# Each of the compounds was dissolved in a medium (a solution prepared by adding DMSO to a 0.5% methylcellulose solution to a final concentration of 10%. As required, 0.5 to 5% of 1 mol/L hydrochloric acid and 5% Cremophor™ were added), and then orally administered to the mice in optimum four doses between 0.5 to 10 mg/kg. As the control, only the medium was orally administered. After a lapse of 25 minutes from the oral administration of each compound, the mice were subjected to the rotarod performance test. Five to twenty-five mice were used for each compound group.
# male ddY mice [3] = assay: Murine 6 Hz convulsion models (6 Hz, 44 mA corneal stimulation); assay type: in vivo; details: for ED50: Mus musculus, 25 min; for Therapeutic Index: TD50/ED50 (rotarod test-1 / 6 Hz convulsion model)
# Description: as §2
# Immediately after the rotarod performance test-1 was completed, the cornea was stimulated by passing an electrical current (6 Hz, 44 mA, 0.2-millisecond pulse, for 3 seconds) from a copper electrode moistened with physiological saline, and the presence or absence of the development of a seizure was observed. The seizure was determined by the development of akinesia, jaw and forelimb clonus, whisker tremors, and Straub tail.
# Further, for the purpose of evaluating the safety margin of each of the compounds of the present invention, the therapeutic index (TD50/ED50) was calculated by comparing the seizure inhibitory action (ED50) in the 6 Hz convulsion models and the neurotoxic action (TD50) in the rotarod performance test-1.
# AMPA receptor = assay: AMPA-induced intraneuronal calcium entry-suppressing action (primary culture of embryonic rat cerebral cortex neurons, Fura 2-AM); assay type: cell-based; details: AMPA stimulation, intracellular calcium increase, read-out: IC50 for AMPA inhibition
# Description: The present inventors conducted the following tests, in order to confirm the effects of the compounds of the present invention. With regard to the AMPA receptor inhibitory action of the compounds, AMPA-induced intraneuronal calcium entry-suppressing action was examined using a primary culture system of embryonic rat cerebral cortex neurons. With regard to the anticonvulsant action of the compounds, 6 Hz (44 mA) stimulation-induced convulsions known as a treatment-resistant convulsion model were used. AMPA inhibitor-induced central nervous system depressant action such as loss of coordination was evaluated using a rotarod performance test.
# AMPA-Induced Intraneuronal Calcium Entry-Suppressing Action
# <Culture conditions> Whole fetuses were removed from the uteri of Wistar rats at embryonic day 18 (Charles River Japan) anesthetized with isoflurane. Whole brains were removed from the whole fetuses, and the cerebral cortex was separated in Leibovitz's L-15 medium or Hanks balanced salt solution containing 20% fetal bovine serum. The resulting material was treated with trypsin/DNase solution at 37° C. for 45 to 60 minutes. After the serum was added to stop the trypsin reaction, the resulting material was centrifuged at 1200 to 1500 rpm for 3 to 5 minutes. After the supernatant was removed, Neurobasal medium (containing 2% B-27 supplement and the like; hereinafter “Neurobasal medium”) was added, and the cells were uniformly dispersed by gently pipetting. The cell suspension was slightly stirred, and then filtered through a nylon mesh filter. Viable cells were counted using a hemocytometer, and diluted with Neurobasal medium to 8 to 10×10^5 cells/mL. The cells were seeded into 96 well plates at 100 μL per well and cultured in a CO2 incubator (5% CO2, 37° C.). The medium was replaced after 24 hours, and neurons cultured for 7 to 21 days were used.
# On the day of the assay, the medium was removed and replaced with a calcium measurement solution containing 5 to 10 μmol/L of Fura 2-AM (140 mmol/L sodium chloride, 5 mmol/L potassium chloride, 2 mmol/L magnesium chloride, 3 mmol/L calcium chloride, 24 mmol/L D(+)-glucose, 10 mmol/L HEPES, 1 μmol/L MK-801, pH 7.4), and the cells were treated in a CO2 incubator (5% CO2, 37° C.) for 1 to 2 hours. The calcium measurement solution containing the Fura-2 AM solution was subsequently removed, and the neurons in each well were washed twice with the calcium measurement solution for each well, and then 50 μL of the calcium measurement solution was added to each well. Subsequently, 50 μL of a test compound or medium prepared at a concentration 3-fold higher than the final concentration was added, and the cells were pre-treated for about 15 minutes. The plates were subsequently placed on the Fluorescence Drug Screening System 6000 (Hamamatsu Photonics K.K.). The cells were stimulated by adding to each well 50 μL of an AMPA stimulating solution prepared to 3.3 μmol/L with the calcium measurement solution. Changes in calcium concentration were measured as the changes in fluorescence intensity at excitation wavelengths of 340 nm and 380 nm (measurement wavelength: 540 nm). The rate of change of the intracellular calcium concentration was calculated according to the following equation: Rate of increase of the intracellular calcium concentration (% control)=(Tpost−Tpre)/(Cpost−Cpre)×100
# wherein Tpost: the proportion of fluorescence of sample wells after stimulation; Tpro: the proportion of fluorescence of sample wells before stimulation; Cpost: the proportion of fluorescence of control wells after stimulation; and Cpre: the proportion of fluorescence of control wells before stimulation.
# The IC50 value of the test compound for AMPA inhibition was determined from the rates of increase of the intracellular calcium concentration at various concentrations.
# [4] = mice, 6 Hz 44 mA stimulation-induced seizure, oral, after rotarod test-1 (25 minutes after administration), read-out: ED50
compound,measurement,setting,value
"N#Cc1ccccc1-n1nc2c(c(-c3cccnc3)c1=O)COc1ccccc1-2 [Control Compound, 2-(3-oxo-4-(pyridin-3-yl)-3,5-dihydro-2H-chromeno[4,3-c]pyridazin-2-yl)benzonitrile, reference compound]",Time of Fall,male ddY mice [1]; Table 3,12.2 s
same,Ratio Relative to the Control Compound,male ddY mice [1]; Table 3,1.0
same,Time of Fall,male ddY mice [1]; Table 4,14.3 s
same,Ratio Relative to the Control Compound,male ddY mice [1]; Table 4,1.0
same,TD50,male ddY mice [2],"2.73 mg/kg, p.o."
same,ED50,male ddY mice [3]; po,3.96 mg/kg
same,Therapeutic Index,male ddY mice [3]; mice,0.69
same,IC50,AMPA receptor,20 nM
"O=c1c(-c2ccccc2Cl)cc2c(n1-c1cccnc1)COc1cccnc1-2 [Example 1, 9-(2-chlorophenyl)-7-(pyridin-3-yl)-6H-pyrano[3,2-b:5,4-b′]dipyridin-8(7H)-one]",Time of Fall,male ddY mice [1]; Table 3,56.3 s
same,Ratio Relative to the Control Compound,male ddY mice [1]; Table 3,4.6
same,TD50,male ddY mice [2],"3.09 mg/kg, p.o."
same,ED50,male ddY mice [3]; po,2.08 mg/kg
same,Therapeutic Index,male ddY mice [3]; mice,1.49
same,IC50,AMPA receptor,33.5 nM
"COc1cncc(-n2c3c(cc(-c4cccc(F)c4C#N)c2=O)-c2ncccc2OC3)c1 [Example 2, 2-fluoro-6-(7-(5-methoxypyridin-3-yl)-8-oxo-7,8-dihydro-6H-pyrano[3,2-b:5,4-b′]dipyridin-9-yl)benzonitrile]",Time of Fall,male ddY mice [1]; Table 3,148.0 s
same,Ratio Relative to the Control Compound,male ddY mice [1]; Table 3,12.1
same,TD50,male ddY mice [2],"4.50 mg/kg, p.o."
same,ED50,male ddY mice [3]; po,1.91 mg/kg
same,Therapeutic Index,male ddY mice [3]; mice,2.36
same,IC50,AMPA receptor,16 nM
"Cc1ccc(-n2c3c(cc(-c4cccc(F)c4C#N)c2=O)-c2ncccc2OC3)cn1 [Example 3, 2-fluoro-6-(7-(6-methylpyridin-3-yl)-8-oxo-7,8-dihydro-6H-pyrano[3,2-b:5,4-b′]dipyridin-9-yl)benzonitrile]",Time of Fall,male ddY mice [1]; Table 3,124.7 s
same,Ratio Relative to the Control Compound,male ddY mice [1]; Table 3,10.2
same,TD50,male ddY mice [2],"2.47 mg/kg, p.o."
same,ED50,male ddY mice [3]; po,1.21 mg/kg
same,Therapeutic Index,male ddY mice [3]; mice,2.04
same,IC50,AMPA receptor,10.4 nM
"Cc1ccc(-n2c3c(cc(-c4cccc(F)c4Cl)c2=O)-c2ncccc2OC3)cn1 [Example 4, 9-(2-chloro-3-fluorophenyl)-7-(6-methylpyridin-3-yl)-6H-pyrano[3,2-b:5,4-b′]dipyridin-8(7H)-one]",Time of Fall,male ddY mice [1]; Table 3,73.2 s
same,Ratio Relative to the Control Compound,male ddY mice [1]; Table 3,6.0
same,TD50,male ddY mice [2],"3.90 mg/kg, p.o."
same,ED50,male ddY mice [3]; po,2.33 mg/kg
same,Therapeutic Index,male ddY mice [3]; mice,1.67
same,IC50,AMPA receptor,28.3 nM
"COc1ncc(-n2c3c(cc(-c4cccc(F)c4C#N)c2=O)-c2ncccc2OC3)cn1 [Example 5, 2-fluoro-6-(7-(2-methoxypyrimidin-5-yl)-8-oxo-7,8-dihydro-6H-pyrano[3,2-b:5,4-b′]dipyridin-9-yl)benzonitrile]",Time of Fall,male ddY mice [1]; Table 4,108.7 s
same,Ratio Relative to the Control Compound,male ddY mice [1]; Table 4,7.6
same,TD50,male ddY mice [2],"6.53 mg/kg, p.o."
same,ED50,male ddY mice [3]; [4],3.23 mg/kg
same,Therapeutic Index,male ddY mice [3]; mice,2.02
same,IC50,AMPA receptor,31.8 nM
"O=c1c(-c2c(F)c(F)cc(F)c2F)cc2c(n1-c1cccnc1)COc1cccnc1-2 [Example 6, 7-(pyridin-3-yl)-9-(2,3,5,6-tetrafluorophenyl)-6H-pyrano[3,2-b:5,4-b′]dipyridin-8(7H)-one]",Time of Fall,male ddY mice [1]; Table 3,68.0 s
same,Ratio Relative to the Control Compound,male ddY mice [1]; Table 3,5.6
same,TD50,male ddY mice [2],"4.44 mg/kg, p.o."
same,ED50,male ddY mice [3]; po,2.86 mg/kg
same,Therapeutic Index,male ddY mice [3]; mice,1.55
same,IC50,AMPA receptor,34.6 nM
"N#Cc1ncccc1-c1cc2c(n(-c3ccsc3)c1=O)COc1cccnc1-2 [Example 7, 3-(8-oxo-7-(thiophen-3-yl)-7,8-dihydro-6H-pyrano[3,2-b:5,4-b′]dipyridin-9-yl)picolinonitrile]",Time of Fall,male ddY mice [1]; Table 3,71.7 s
same,Ratio Relative to the Control Compound,male ddY mice [1]; Table 3,5.9
same,TD50,male ddY mice [2],"1.70 mg/kg, p.o."
same,ED50,male ddY mice [3]; po,0.97 mg/kg
same,Therapeutic Index,male ddY mice [3]; mice,1.75
same,IC50,AMPA receptor,15.5 nM
"N#Cc1nccnc1-c1cc2c(n(-c3ccsc3)c1=O)COc1cccnc1-2 [Example 8, 3-(8-oxo-7-(thiophen-3-yl)-7,8-dihydro-6H-pyrano[3,2-b:5,4-b′]dipyridin-9-yl)pyrazine-2-carbonitrile]",Time of Fall,male ddY mice [1]; Table 3,65.8 s
same,Ratio Relative to the Control Compound,male ddY mice [1]; Table 3,5.4
same,TD50,male ddY mice [2],">8 mg/kg, p.o."
same,ED50,male ddY mice [3]; [4],4.85 mg/kg
same,Therapeutic Index,male ddY mice [3]; mice,>1.65
same,IC50,AMPA receptor,70.1 nM
"O=c1c(-c2ccccc2F)cc2c(n1-c1ccccc1)COc1cccnc1-2 [Example 9, 9-(2-fluorophenyl)-7-phenyl-6H-pyrano[3,2-b:5,4-b′]dipyridin-8(7H)-one]",Time of Fall,male ddY mice [1]; Table 3,109.7 s
same,Ratio Relative to the Control Compound,male ddY mice [1]; Table 3,9.0
same,TD50,male ddY mice [2],"9.55 mg/kg, p.o."
same,ED50,male ddY mice [3]; [4],3.38 mg/kg
same,Therapeutic Index,male ddY mice [3]; mice,2.83
same,IC50,AMPA receptor,50.9 nM
"N#Cc1ccccc1-c1cc2c(n(-c3ccc(F)cc3)c1=O)COc1cccnc1-2 [Example 10, 2-(7-(4-fluorophenyl)-8-oxo-7,8-dihydro-6H-pyrano[3,2-b:5,4-b′]dipyridin-9-yl)benzonitrile]",Time of Fall,male ddY mice [1]; Table 3,84.2 s
same,Ratio Relative to the Control Compound,male ddY mice [1]; Table 3,6.9
same,TD50,male ddY mice [2],"3.37 mg/kg, p.o."
same,ED50,male ddY mice [3]; po,2.08 mg/kg
same,Therapeutic Index,male ddY mice [3]; mice,1.62
same,IC50,AMPA receptor,18.8 nM
"N#Cc1ncccc1-c1cc2c(n(-c3ccc(F)cc3)c1=O)COc1cccnc1-2 [Example 11, 3-(7-(4-fluorophenyl)-8-oxo-7,8-dihydro-6H-pyrano[3,2-b:5,4-b′]dipyridin-9-yl)picolinonitrile]",Time of Fall,male ddY mice [1]; Table 3,114.7 s
same,Ratio Relative to the Control Compound,male ddY mice [1]; Table 3,9.4
same,TD50,male ddY mice [2],"5.05 mg/kg, p.o."
same,ED50,male ddY mice [3]; [4],1.69 mg/kg
same,Therapeutic Index,male ddY mice [3]; mice,2.99
same,IC50,AMPA receptor,26.3 nM
"N#Cc1ncccc1-c1cc2c(n(-c3ccccc3F)c1=O)COc1cccnc1-2 [Example 12, 3-(7-(2-fluorophenyl)-8-oxo-7,8-dihydro-6H-pyrano[3,2-b:5,4-b′]dipyridin-9-yl)picolinonitrile]",Time of Fall,male ddY mice [1]; Table 3,80.5 s
same,Ratio Relative to the Control Compound,male ddY mice [1]; Table 3,6.6
same,TD50,male ddY mice [2],"3.06 mg/kg, p.o."
same,ED50,male ddY mice [3]; po,1.66 mg/kg
same,Therapeutic Index,male ddY mice [3]; mice,1.84
same,IC50,AMPA receptor,33 nM
